Source: patent publication US8022090B2, “Vitamin C composition stabilized with cationic material, anionic material and caffeic acid derivative” (The Faceshop Korea Co., Ltd, priority 2007, dated 2011)

Test: solubility measurement in purified water and ethanol
Conditions: for solubility: ethanol (25° C.); for density up to which dissolved: 25° C.

SMILES: O=C(O)/C=C/c1ccc(O)c(O)c1 [caffeic acid]
- solubility (density 1 mg/mL): dissolved
- solubility (density 10 mg/mL): dissolved
- density up to which dissolved (ethanol): ≥ 10 mg/mL
- density up to which dissolved (purified water): not dissolved
